Values after ≈ are worked out from the molar mass of the structure shown. Read-outs that look alike come from different tables or passages of the source. Where a SMILES comes first, the peptide text is derived from it. [ ]: non-standard residue; d: D form. N(tridecyl)Gly = CCCCCCCCCCCCCNCC(=O)O; Gly(N-2-aminoethyl) = NCCNCC(=O)O; Gly(N-cHex) = O=C(O)CNC1CCCCC1; Nleu = CC(C)CNCC(=O)O; Nlys = NCCCCNCC(=O)O
Experiments:
[1] = system: human red blood cells (hRBC); test: Hemolytic activity against human red blood cells; format: cell-based; conditions: for hRBC HC10: Example 2, same donor sample of hRBCs
Protocol: Hemolytic activity was determined using single donor human red blood cells (hRBC). hRBCs were washed with PBS and centrifuged (1000 RPM; 10 minutes) three times, resuspended in PBS and aliquoted (100 μL) in 96 well plates. 2-fold serial dilutions of 10× peptoid final concentrations in PBS were prepared and added to wells in triplicate. PBS was used as a vehicle control and 1% Triton X-100 as a positive control. Plates were incubated for 1 hour (37° C.; 5% CO2) then centrifuged (1000 RPM; 10 minutes) and supernatant was diluted 1:20 into PBS in a new 96-well plate. Plates were read on a SpectraMax M5 plate reader (Abs. 405 nm). Percent hemolysis was determined by the following equation: […]
GraFit was used to determine concentrations at 50% hemolytic activity (HC50) and the Hill coefficient (H). Hemolytic activity at 10% (HC10) was then determined by the following equation: […]
The hemolytic activity of select peptoids was determined as done previously (Green et al. ACS medicinal chemistry letters 12 9, 1470-1477 (2021); Middleton et al. Bioorganic & medicinal chemistry letters 28 22, 3514-3519 (2018)). Selected peptoids were prepared in 2-fold serial dilutions in PBS at the desired concentrations. Human red blood cells (hRBCs, 9 mL) were centrifuged at 1000 rpm for 10 minutes, and the supernatant was removed and discarded. A 10 mL aliquot of PBS was used to resuspend the hRBCs which were centrifuged again at 1000 rpm for 10 minutes. This PBS wash was completed two more times for a total of three washes. A 9 mL aliquot of PBS was added to the hRBCs, and 100 μL of cell solution was added to individual wells of a 96-well plate. Peptoid solutions (11.1 μL) were added to the appropriate wells in triplicate. A vehicle control of PBS and positive control of 1% Triton X-100 were added to wells in triplicate.
The plate was incubated at 37° C. for 1 hour and centrifuged at 1000 rpm for 10 minutes. For each well, 5 μL of supernatant was transferred to 95 μL of PBS in a new 96-well plate. The absorbance at 405 nm was measured using a SpectraMax M5 Plate Reader, and the percent hemolysis was calculated as follows: […]

[2] = Mammalian cytotoxicity, MTT, HepG2; format: cell-based, human; conditions: human, HepG2 hepatocellular carcinoma cells
Procedure, shortened: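 HepG2 cells (1×10^5 cells/mL, phenol-red-free DMEM, 10% FBS) were exposed to 2-fold dilutions of compound at 1.56–200 μg/mL final, in triplicate, for 72 h at 37 °C, 5% CO2. MTT was added for 3 h and, after DMSO solubilization, absorbance was read at 570 nm. TD50 is the concentration giving a 50% growth reduction versus the water vehicle, reported as the mean of biological replicates ± SD.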

SMILES | hRBC HC10 [1] [µg/mL] | CC50 at 72 h [2] [µg/mL] | HC10 hRBC ([1]; Example 1, 10% lysis, 1 hour) [µg/mL] | CC50 at 72 h ([2]; Example 1, 72 hours, MTT, read-out: TD50 HepG2) [µg/mL]
CCCCCCCCCCCCCNCC(=O)N(CC(=O)N(CCCCN)CC(=O)N(CCN)CC(=O)N(CC(N)=O)CC(C)C)CC(C)C [Compound 9] (H-[N(tridecyl)Gly][Nleu][Nlys][Gly(N-2-aminoethyl)][Nleu]-NH2) | 130 ± 45 | 167 ± 75 (≈ 235 µM) | – | –
CCCCCCCCCCCCCNCC(=O)N(CC(=O)N(CCCCN)CC(=O)N(CCN)CC(=O)N(CC(N)=O)C1CCCCC1)C1CCCCC1 [RMG8-8, Ntri-Ncha-Nlys-Nae-Ncha] (H-[N(tridecyl)Gly][Gly(N-cHex)][Nlys][Gly(N-2-aminoethyl)][Gly(N-cHex)]-NH2) | 75 ± 31 | – | 77 | 189 ± 43 (≈ 248 µM)
